Reference: patent US20260184710A1, “CASITAS B-LINEAGE LYMPHOMA PROTOONCOGENE B (CBL-B) DEGRADING COMPOUNDS AND ASSOCIATED METHODS OF USE” (Arvinas Operations, Inc., priority 2022, published 2026)

Columns and labels:
[1] = target: T1, Cbl-b (Homo sapiens, UniProt Q13191); test: Cbl-b Degradation Method B (Nano-Glo HiBiT lytic detection); assay type: cell-based; details: Cbl-b-HiBit KI Jurkat Cells, incubated at least 6-24 hours; for DC50: half maximal degradation, read-out: Cbl-b Degredation Method B IC50; for Dmax: read-out: Cbl-b Degredation Method B Dmax (%)
T1 construct: Cbl-b-HiBit KI Jurkat Cells were purchased from Promega; host or cells: Cbl-b-HiBiT knock-in Jurkat cells
T1 sequence (Q13191 whole entry): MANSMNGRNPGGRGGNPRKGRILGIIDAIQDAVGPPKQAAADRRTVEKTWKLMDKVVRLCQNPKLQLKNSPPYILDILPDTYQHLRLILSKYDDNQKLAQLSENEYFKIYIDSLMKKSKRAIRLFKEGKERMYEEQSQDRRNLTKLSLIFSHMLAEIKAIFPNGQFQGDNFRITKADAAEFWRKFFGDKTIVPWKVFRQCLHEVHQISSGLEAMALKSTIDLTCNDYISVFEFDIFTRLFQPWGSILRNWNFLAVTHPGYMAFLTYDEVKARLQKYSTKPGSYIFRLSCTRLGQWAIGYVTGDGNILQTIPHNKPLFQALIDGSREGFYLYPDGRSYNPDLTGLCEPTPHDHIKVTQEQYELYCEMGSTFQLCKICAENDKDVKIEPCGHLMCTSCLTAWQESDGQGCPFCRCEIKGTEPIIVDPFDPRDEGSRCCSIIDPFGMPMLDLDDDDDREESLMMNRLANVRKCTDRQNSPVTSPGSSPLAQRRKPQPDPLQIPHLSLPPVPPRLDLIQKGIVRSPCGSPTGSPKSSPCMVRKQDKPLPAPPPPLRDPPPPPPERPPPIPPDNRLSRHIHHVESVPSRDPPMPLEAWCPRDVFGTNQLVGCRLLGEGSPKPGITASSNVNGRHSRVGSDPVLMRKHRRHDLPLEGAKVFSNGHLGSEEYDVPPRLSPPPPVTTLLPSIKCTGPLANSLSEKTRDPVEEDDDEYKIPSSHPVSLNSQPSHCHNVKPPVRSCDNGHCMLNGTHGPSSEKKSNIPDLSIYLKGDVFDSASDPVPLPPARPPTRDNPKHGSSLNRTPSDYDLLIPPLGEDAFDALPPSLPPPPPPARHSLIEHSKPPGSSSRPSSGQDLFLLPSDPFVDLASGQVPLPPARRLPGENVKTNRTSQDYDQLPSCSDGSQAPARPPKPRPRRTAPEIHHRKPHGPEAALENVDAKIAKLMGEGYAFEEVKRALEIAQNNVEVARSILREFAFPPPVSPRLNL
Outline: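 Cbl-b-HiBiT knock-in Jurkat cells (20,000/well) were treated after ~24 h plating with an 11-point 1:3 series for 6-24 h at 37° C. Remaining Cbl-b measured by Nano-Glo HiBiT lytic luminescence. DC50 and Dmax expressed as % of control.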

[2] = target: T1, Cbl-b; test: Cbl-b Degradation Method A (FACS, anti-Cbl-b antibody staining); assay type: cell-based; details: Cbl-b-HiBit KI Jurkat Cells, incubated at least 20 hours; for DC50: half maximal degradation, read-out: Cbl-b Degredation Method A IC50; for Dmax: Jurkat, maximum degradation observed, read-out: Cbl-b Degredation Method A Dmax (%)
Description: Cbl-b Degradation Method A
Cbl-b-HiBit KI Jurkat Cells were purchased from Promega, and cell media consisted of RPMI 1640 with 10% FBS and 1% pen/strep. The cells were counted, measured for viability, and 100 μL of the cell solution was into 96 well flat bottom plates at a ratio of 290,000 cells per 100 μL. Compounds were dissolved in DMSO to make a 10 mM stock solution, which was diluted with cell media. 100 μL of the diluted compound mixture was added to the wells. The plate was incubated for at least 20 hours at 37° C. and 5% CO2. After incubation, the plate was shaken at 700-750 RMP for 15-30 minutes to ensure cells were removed from the wells. The wells were transferred to a 96-well v-bottom plate and spun for 2200 RPM for 3 minutes. The supernatant was removed, cells re-suspended in 100 μL of the fixative, and subsequently incubated at room temperature for 15 minutes. Afterwards, 150 μL of DPBS was added to each well, and the cells were centrifuged at 2500 RPM for 3 minutes. The supernatant was removed and the plate was chilled on ice for 2-3 minutes. While still on the ice, 100 μL of Perm III was added to each well, the wells mixed, and subsequently left on the ice for another 15 minutes. Afterwards, the plate was removed from the ice, 150 μL of DBPS was added to each well, and the cells centrifuged at 2700 RPM for 3 minutes. The supernatant was removed, and an additional 200 μL of was DPBS was added to each well, followed by centrifuging at 2700 RPM for 3 minutes, after which the supernatant was removed. The anti-Cbl-b antibody was diluted 1:200 in 1× Perm Wash buffer and 50 μL of the antibody mixture was added to each well and mixed. After addition, the plate was incubated for 35-45 minutes at room temperature. After incubation, 200 μL of DPBS was added to each wells, and the plate centrifuged at 2700 RPM for 3 minutes, followed by the removal of the supernatant. The washing step was repeated by adding 200 μL of DPBS to each wells followed by centrifuge at 2700 RPM for 3 minutes and removal of the supernatant. The a-Rabbit-AF488 antibody was diluted 1:1000 in Perm Wash buffer, 50 μL of the dilution added to each well, and mixed. After mixing, the plate was incubated for 30 minutes at room temperature in the dark. Subsequently, the supernatant was removed, and 200 μL of DBPS added to the cells, which were then centrifuged at 2900 RPM for 4 minutes. The supernatant was removed, and an additional 95 μL of DBPS was added to the wells and mixed. The cells were then transferred to a round bottom polypropylene plate and analyzed using FACS with the parameters below:
The concentration of an exemplary compound that leads to half maximal degradation (DC50) as well as the maximum degradation observed (Dmax, conventionally expressed as a percentage of control) is shown below in Table 2.

| Structure (SMILES) | DC50 [1] [nM] | Dmax ([1]; maximum degradation observed) [%] | DC50 [2] [nM] | Dmax [2] [%] | Cbl-b Degredation Method B Dmax (%) ([1]; maximum degradation observed) |
| --- | --- | --- | --- | --- | --- |
| CC(C)n1c(=O)n(C2CCC(=O)NC2=O)c2cccc(N3CCC(O[C@H]4CC[C@H](CN5CCN(Cc6cc7c(c(C(F)(F)F)c6)CN(c6cccc([C@]8(Cc9nncn9C)C[C@@H](C#N)C8)c6)C7=O)CC[C@H]5C)CC4)CC3)c21 (stereo partly drawn) [Example 323, (1r,3r)-3-[3-(6-{[(5R)-5-methyl-4-{[(1r,4r)-4-({1-[1-(2,6-dioxopiperidin-3-yl)-2-oxo-3-(propan-2-yl)-2,3-dihydro-1H-1,3-benzodiazol-4-yl]piperidin-4-yl}oxy)cyclohexyl]methyl}-1,4-diazepan-1-yl]methyl}-1-oxo-4-(trifluoromethyl)-2,3-dihydro-1H-isoindol-2-yl)phenyl]-3-[(4-methyl-4H-1,2,4-triazol-3-yl)methyl]cyclobutane-1-carbonitrile] | < 5 |  | 5 to 50 | 35 to 70 | C (C ≤ 35) |
| CC1CN(C[C@H]2CC[C@H](OC3CCN(c4ccc5c(n4)C(C)N(C4CCC(=O)NC4=O)C5=O)CC3)CC2)CCN1Cc1cc2c(c(C(F)(F)F)c1)CN(c1cccc(C3(Cc4nncn4C)CCC3)c1)C2=O (some centres unmarked) [Example 209, 3-[7-methyl-5-oxo-2-(4-{[(1r,4r)-4-[(3-methyl-4-{[2-(3-{1-[(4-methyl-4H-1,2,4-triazol-3-yl)methyl]cyclobutyl}phenyl)-3-oxo-7-(trifluoromethyl)-2,3-dihydro-1H-isoindol-5-yl]methyl}piperazin-1-yl)methyl]cyclohexyl]oxy}piperidin-1-yl)-5H,6H,7H-pyrrolo[3,4-b]pyridin-6-yl]piperidine-2,6-dione] | < 5 | 35 to 70 | 5 to 50 | 35 to 70 |  |
| CC1c2nc(N3CCC(O[C@H]4CC[C@@H](CN5CCN(C[C@H]6CCCN(Cc7cc8c(c(C(F)(F)F)c7)CN(c7cccc(C9(Cc%10nncn%10C)COC9)c7)C8=O)C6)CC5)CC4)CC3)ccc2C(=O)N1C1CCC(=O)NC1=O (stereo partly drawn) [Example 160, 3-[7-methyl-5-oxo-2-(4-{[(1r,4r)-4-[(4-{[(3S)-1-{[2-(3-{3-[(4-methyl-4H-1,2,4-triazol-3-yl)methyl]oxetan-3-yl}phenyl)-3-oxo-7-(trifluoromethyl)-2,3-dihydro-1H-isoindol-5-yl]methyl}piperidin-3-yl]methyl}piperazin-1-yl)methyl]cyclohexyl]oxy}piperidin-1-yl)-5H,6H,7H-pyrrolo[3,4-b]pyridin-6-yl]piperidine-2,6-dione] | < 5 | 35 to 70 | < 5 | 35 to 70 |  |
| Cn1cnnc1CC1(c2cccc(N3Cc4c(cc(CN5CCC[C@H](CN6CCN(C[C@H]7CC[C@@H](OC8CCN(c9ccc%10c(c9Cl)CN(C9CCC(=O)NC9=O)C%10=O)CC8)CC7)CC6)C5)cc4C(F)(F)F)C3=O)c2)COC1 (stereo partly drawn) [Example 165, 3-[4-chloro-1-oxo-5-(4-{[(1r,4r)-4-[(4-{[(3S)-1-{[2-(3-{3-[(4-methyl-4H-1,2,4-triazol-3-yl)methyl]oxetan-3-yl}phenyl)-3-oxo-7-(trifluoromethyl)-2,3-dihydro-1H-isoindol-5-yl]methyl}piperidin-3-yl]methyl}piperazin-1-yl)methyl]cyclohexyl]oxy}piperidin-1-yl)-2,3-dihydro-1H-isoindol-2-yl]piperidine-2,6-dione] | < 5 | > 70 | < 5 | > 70 |  |
| Cn1cnnc1CC1(c2cccc(N3Cc4c(cc(NCC[C@H]5CC[C@H](OC6CCN(c7ccc8c(c7F)CN(C7CCC(=O)NC7=O)C8=O)CC6)CC5)cc4C(F)(F)F)C3=O)c2)COC1 (some centres unmarked) [Example 17, 3-[4-fluoro-5-[4-[4-[2-[[2-[3-[3-[(4-methyl-1,2,4-triazol-3-yl)methyl]oxetan-3-yl]phenyl]-3-oxo-7-(trifluoromethyl)isoindolin-5-yl]amino]ethyl]cyclohexoxy]-1-piperidyl]-1-oxo-isoindolin-2-yl]piperidine-2,6-dione] | > 500 |  | > 500 |  |  |

Second part, the compound after the results:

| DC50 [1] [nM] | Dmax ([1]; maximum degradation observed) [%] | DC50 [2] [nM] | Dmax [2] [%] | Cbl-b Degredation Method B Dmax (%) ([1]; maximum degradation observed) | Structure (SMILES) |
| --- | --- | --- | --- | --- | --- |
| < 5 | 35 to 70 | 5 to 50 | 35 to 70 |  | Cn1cnnc1CC1(c2cccc(N3Cc4c(cc(CN5CCN(C[C@H]6CC[C@H](OC7CCN(c8ccc9c(c8)C(=O)N(C8CCC(=O)NC8=O)C9=O)CC7)CC6)CC5)cc4C(F)(F)F)C3=O)c2)COC1 (some centres unmarked) [Example 22, 2-(2,6-dioxo-3-piperidyl)-5-[4-[4-[[4-[[2-[3-[3-[(4-methyl-1,2,4-triazol-3-yl)methyl]oxetan-3-yl]phenyl]-3-oxo-7-(trifluoromethyl)isoindolin-5-yl]methyl]piperazin-1-yl]methyl]cyclohexoxy]-1-piperidyl]isoindoline-1,3-dione] |
| > 500 |  | > 500 |  |  | C[C@@H]1C[C@@H](CN2CCN(c3ccc4c(c3)C(=O)N(C3CCC(=O)NC3=O)C4=O)CC2)CN(Cc2cc3c(c(C(F)(F)F)c2)CN(c2cccc(C4(Cc5nncn5C)COC4)c2)C3=O)C1 (stereo partly drawn) [Example 86, 2-(2,6-dioxopiperidin-3-yl)-5-(4-{[(3R,5R)-5-methyl-1-{[2-(3-{3-[(4-methyl-4H-1,2,4-triazol-3-yl)methyl]oxetan-3-yl}phenyl)-3-oxo-7-(trifluoromethyl)-2,3-dihydro-1H-isoindol-5-yl]methyl}piperidin-3-yl]methyl}piperazin-1-yl)-2,3-dihydro-1H-isoindole-1,3-dione] |
| > 500 |  | > 500 |  |  | Cn1cnnc1CC1(c2cccc(N3Cc4c(cc(CN5CCC(CN6CCC(C7CCN(c8ccc9c(c8)C(=O)N(C8CCC(=O)NC8=O)C9=O)CC7)CC6)CC5)cc4C(F)(F)F)C3=O)c2)COC1 (centres unmarked) [Example 77, 2-(2,6-dioxopiperidin-3-yl)-5-{1′-[(1-{[2-(3-{3-[(4-methyl-4H-1,2,4-triazol-3-yl)methyl]oxetan-3-yl}phenyl)-3-oxo-7-(trifluoromethyl)-2,3-dihydro-1H-isoindol-5-yl]methyl}piperidin-4-yl)methyl]-[4,4′-bipiperidin]-1-yl}-2,3-dihydro-1H-isoindole-1,3-dione] |
| < 5 | > 70 | 5 to 50 | > 70 |  | Cn1cnnc1CC1(c2cccc(N3Cc4c(cc(CN5CCC[C@H](CN6CCC(CN7CCC(CN8CCN(c9ccc%10c(c9F)CN(C9CCC(=O)NC9=O)C%10=O)CC8)CC7)CC6)C5)cc4C(F)(F)F)C3=O)c2)COC1 (stereo partly drawn) [Example 74, 3-{4-fluoro-5-[4-({1-[(1-{[(3R)-1-{[2-(3-{3-[(4-methyl-4H-1,2,4-triazol-3-yl)methyl]oxetan-3-yl}phenyl)-3-oxo-7-(trifluoromethyl)-2,3-dihydro-1H-isoindol-5-yl]methyl}piperidin-3-yl]methyl}piperidin-4-yl)methyl]piperidin-4-yl}methyl)piperazin-1-yl]-1-oxo-2,3-dihydro-1H-isoindol-2-yl}piperidine-2,6-dione] |
| > 500 |  | 50 to 500 |  |  | Cn1cnnc1CC1(c2cccc(N3Cc4c(cc(CN5CCN(C6CCN(CC7CCN(c8ccc9c(c8)C(=O)N(C8CCC(=O)NC8=O)C9=O)CC7)CC6)CC5)cc4C(F)(F)F)C3=O)c2)COC1 (centres unmarked) [Example 104, 2-(2,6-dioxopiperidin-3-yl)-5-(4-{[4-(4-{[2-(3-{3-[(4-methyl-4H-1,2,4-triazol-3-yl)methyl]oxetan-3-yl}phenyl)-3-oxo-7-(trifluoromethyl)-2,3-dihydro-1H-isoindol-5-yl]methyl}piperazin-1-yl)piperidin-1-yl]methyl}piperidin-1-yl)-2,3-dihydro-1H-isoindole-1,3-dione] |
